# Measurements as given in PubChem BioAssay (NCI).
#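 Abbreviation: GI50, concentration required for 50% inhibition of growth. TGI denotes the concentration required for complete inhibition of growth.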
# Experiments:
# Experiment in all cases: growth of human tumour cells (NCI), 384-well format
# SNB-19 CNS = test system: SNB-19 CNS
# A549 NSCLC = test system: A549 NSCLC
# U251 glioblastoma = test system: U251 glioblastoma
# UACC-257 melanoma = test system: UACC-257 melanoma
# UO-31 renal = test system: UO-31 renal
# K-562 leukemia = test system: K-562 leukemia
# NCI-H23 lung = test system: NCI-H23 lung
# DU-145 prostate = test system: DU-145 prostate
# OVCAR-4 ovarian = test system: OVCAR-4 ovarian
# IGROV1 ovarian = test system: IGROV1 ovarian
# TK-10 renal = test system: TK-10 renal
# HL-60(TB) leukemia = test system: HL-60(TB) leukemia
# NCI/ADR-RES ovarian = test system: NCI/ADR-RES ovarian
# MCF7 breast = test system: MCF7 breast
# SW-620 colon = test system: SW-620 colon
# SK-OV-3 ovarian = test system: SK-OV-3 ovarian
# NCI-H522 lung = test system: NCI-H522 lung
# 786-0 renal = test system: 786-0 renal
# SN12C renal = test system: SN12C renal
# ACHN renal = test system: ACHN renal
# HCT-15 colon = test system: HCT-15 colon
# SF-268 CNS = test system: SF-268 CNS
# NCI-H322M lung = test system: NCI-H322M lung
# A498 renal = test system: A498 renal
# NCI-H226 lung = test system: NCI-H226 lung
# RPMI-8226 leukemia = test system: RPMI-8226 leukemia
# SR leukemia = test system: SR leukemia
# MALME-3M melanoma = test system: MALME-3M melanoma
# HS 578T breast = test system: HS 578T breast
# HCC-2998 colon = test system: HCC-2998 colon
# SNB-75 CNS = test system: SNB-75 CNS
# MDA-MB-435 melanoma = test system: MDA-MB-435 melanoma
# NCI-H460 NSCLC = test system: NCI-H460 NSCLC
# KM12 colon = test system: KM12 colon
# LOX IMVI melanoma = test system: LOX IMVI melanoma
# CAKI-1 renal = test system: CAKI-1 renal
# HOP-62 NSCLC = test system: HOP-62 NSCLC
# MDA-MB-231 breast = test system: MDA-MB-231 breast
# SF-539 CNS = test system: SF-539 CNS
# M14 melanoma = test system: M14 melanoma
# SK-MEL-5 melanoma = test system: SK-MEL-5 melanoma
# CCRF-CEM leukemia = test system: CCRF-CEM leukemia
# SF-295 CNS = test system: SF-295 CNS
# T-47D breast = test system: T-47D breast
# EKVX NSCLC = test system: EKVX NSCLC
# OVCAR-3 ovarian = test system: OVCAR-3 ovarian
# COLO 205 colon = test system: COLO 205 colon
# OVCAR-8 ovarian = test system: OVCAR-8 ovarian
# SK-MEL-28 melanoma = test system: SK-MEL-28 melanoma
# MDA-MB-468 breast = test system: MDA-MB-468 breast
# UACC-62 melanoma = test system: UACC-62 melanoma
# BT-549 breast = test system: BT-549 breast
# HOP-92 NSCLC = test system: HOP-92 NSCLC
# PC-3 prostate = test system: PC-3 prostate
# HT29 colon = test system: HT29 colon
# HCT-116 colon = test system: HCT-116 colon
# RXF 393 renal = test system: RXF 393 renal
smiles,measurement,setting,value
CC(C)S(=O)(=O)c1ccccc1Nc1nc(Nc2cccc(NC(=O)CN)c2)ncc1Cl,GI50,SNB-19 CNS,141 nM
same,TGI,SNB-19 CNS,6120 nM
same,GI50,A549 NSCLC,106 nM
same,TGI,A549 NSCLC,7360 nM
same,GI50,U251 glioblastoma,193 nM
same,TGI,U251 glioblastoma,1600 nM
same,GI50,UACC-257 melanoma,324 nM
same,TGI,UACC-257 melanoma,1440 nM
same,GI50,UO-31 renal,218 nM
same,TGI,UO-31 renal,10700 nM
same,GI50,K-562 leukemia,25 nM
same,TGI,K-562 leukemia,242 nM
same,GI50,NCI-H23 lung,107 nM
same,TGI,NCI-H23 lung,247 nM
same,GI50,DU-145 prostate,79.1 nM
same,TGI,DU-145 prostate,1710 nM
same,GI50,OVCAR-4 ovarian,377 nM
same,TGI,OVCAR-4 ovarian,2070 nM
same,GI50,IGROV1 ovarian,141 nM
same,TGI,IGROV1 ovarian,383 nM
same,GI50,TK-10 renal,185 nM
same,TGI,TK-10 renal,2560 nM
same,GI50,HL-60(TB) leukemia,< 10 nM
same,TGI,HL-60(TB) leukemia,< 10 nM
same,GI50,NCI/ADR-RES ovarian,72.7 nM
same,TGI,NCI/ADR-RES ovarian,1140 nM
same,GI50,MCF7 breast,30.1 nM
same,TGI,MCF7 breast,685 nM
same,GI50,SW-620 colon,29.2 nM
same,TGI,SW-620 colon,436 nM
same,GI50,SK-OV-3 ovarian,290 nM
same,TGI,SK-OV-3 ovarian,7900 nM
same,GI50,NCI-H522 lung,77.1 nM
same,TGI,NCI-H522 lung,622 nM
same,GI50,786-0 renal,182 nM
same,TGI,786-0 renal,2080 nM
same,GI50,SN12C renal,149 nM
same,TGI,SN12C renal,518 nM
same,GI50,ACHN renal,200 nM
same,TGI,ACHN renal,14700 nM
same,GI50,HCT-15 colon,152 nM
same,TGI,HCT-15 colon,1250 nM
same,GI50,SF-268 CNS,30.7 nM
same,TGI,SF-268 CNS,223 nM
same,GI50,NCI-H322M lung,389 nM
same,TGI,NCI-H322M lung,1730 nM
same,GI50,A498 renal,186 nM
same,TGI,A498 renal,11400 nM
same,GI50,NCI-H226 lung,49.5 nM
same,TGI,NCI-H226 lung,354 nM
same,GI50,RPMI-8226 leukemia,20.3 nM
same,TGI,RPMI-8226 leukemia,60.7 nM
same,GI50,SR leukemia,< 10 nM
same,TGI,SR leukemia,< 10 nM
same,GI50,MALME-3M melanoma,399 nM
same,TGI,MALME-3M melanoma,1560 nM
same,GI50,HS 578T breast,45.5 nM
same,TGI,HS 578T breast,205 nM
same,GI50,HCC-2998 colon,187 nM
same,TGI,HCC-2998 colon,659 nM
same,GI50,SNB-75 CNS,23.8 nM
same,TGI,SNB-75 CNS,189 nM
same,GI50,MDA-MB-435 melanoma,168 nM
same,TGI,MDA-MB-435 melanoma,1300 nM
same,GI50,NCI-H460 NSCLC,< 10 nM
same,TGI,NCI-H460 NSCLC,335 nM
same,GI50,KM12 colon,19.1 nM
same,TGI,KM12 colon,474 nM
same,GI50,LOX IMVI melanoma,25.8 nM
same,TGI,LOX IMVI melanoma,180 nM
same,GI50,CAKI-1 renal,124 nM
same,TGI,CAKI-1 renal,866 nM
same,GI50,HOP-62 NSCLC,39.1 nM
same,TGI,HOP-62 NSCLC,680 nM
same,GI50,MDA-MB-231 breast,93.2 nM
same,TGI,MDA-MB-231 breast,445 nM
same,GI50,SF-539 CNS,47.2 nM
same,TGI,SF-539 CNS,216 nM
same,GI50,M14 melanoma,17.7 nM
same,TGI,M14 melanoma,493 nM
same,GI50,SK-MEL-5 melanoma,56.3 nM
same,TGI,SK-MEL-5 melanoma,229 nM
same,GI50,CCRF-CEM leukemia,< 10 nM
same,TGI,CCRF-CEM leukemia,< 10 nM
same,GI50,SF-295 CNS,89.1 nM
same,TGI,SF-295 CNS,11400 nM
same,GI50,T-47D breast,480 nM
same,TGI,T-47D breast,3320 nM
same,GI50,EKVX NSCLC,150 nM
same,TGI,EKVX NSCLC,1710 nM
same,GI50,OVCAR-3 ovarian,57.1 nM
same,TGI,OVCAR-3 ovarian,290 nM
same,GI50,COLO 205 colon,19.4 nM
same,TGI,COLO 205 colon,128 nM
same,GI50,OVCAR-8 ovarian,87.5 nM
same,TGI,OVCAR-8 ovarian,308 nM
same,GI50,SK-MEL-28 melanoma,217 nM
same,TGI,SK-MEL-28 melanoma,1290 nM
same,GI50,MDA-MB-468 breast,17.4 nM
same,TGI,MDA-MB-468 breast,42 nM
same,GI50,UACC-62 melanoma,34.8 nM
same,TGI,UACC-62 melanoma,213 nM
same,GI50,BT-549 breast,49.5 nM
same,TGI,BT-549 breast,193 nM
same,GI50,HOP-92 NSCLC,135 nM
same,TGI,HOP-92 NSCLC,463 nM
same,GI50,PC-3 prostate,237 nM
same,TGI,PC-3 prostate,1490 nM
same,GI50,HT29 colon,184 nM
same,TGI,HT29 colon,1160 nM
same,GI50,HCT-116 colon,< 10 nM
same,TGI,HCT-116 colon,164 nM
same,GI50,RXF 393 renal,21.4 nM
same,TGI,RXF 393 renal,167 nM
